Source: publication PMC6774960, “Design, synthesis and biological evaluation of a series of new resveratrol analogues as potential anti-cancer agents” (Royal Society Open Science, 2019)

What was measured:
HeLa cells = assay: MTT anti-proliferation assay, HeLa; format: cell-based, human; conditions: Homo sapiens, HeLa, 24 h, average of three determinations
Experimental: (§1) The 22 synthesized resveratrol compounds were evaluated for anti-proliferative activities against three human cancer cell lines, including HepG2, A549 and HeLa cells, using 3-[4,5-dimethylthiazol-2-yl]-2,5 diphenyl tetrazolium bromide (MTT) assays. Paclitaxel, a well-known tubulin inhibitor, was used as a positive control.
(§2) The anti-proliferative and cytotoxicity activity was determined using MTT assay. Human cervical carcinoma HeLa cells, human hepatocellular carcinoma HepG2 cells, human lung carcinoma A549 cells were representative in the anti-proliferation assay, which were obtained from the Shanghai Institute of Cell Biology (Shanghai, China). Normal African green monkey kidney Vero cells were a gift from Dr Xiumiao He at Guangxi University for Nationalities. Normal human hepatocytes LO2 cells were a gift from Dr Xing Lin at Guangxi Medical University. The HepG2, Hela, LO2 and Vero cells were cultured in Dulbecco's modified Eagle's medium (DMEM, Gibco) and the A549 cells were cultured in RPMI1640 (Gibco), both media were supplemented with 10% fetal calf serum and antibiotics (100 IU ml^−1 penicillin, 100 IU ml^−1 streptomycin; Amresco).
After 24 h, cell morphology was observed using a light microscope, and then 20 µl of MTT solution (5 mg ml^−1) was added to the well and incubated for 4 h, then cell survival was determined by measuring the optical density (OD) absorbance at a wavelength of 570 nm using an ELISA microplate reader. […] Cisplatin and paclitaxel were used as positive control drugs.

HepG2 cells = assay: MTT anti-proliferation assay, HepG2; format: cell-based, human; conditions: Homo sapiens, HepG2, 24 h, average of three determinations
Experimental: as §1, with “control. […] Therefore, the inhibitory activity of the compounds depended not only on the 2-position substitution of acrylic acid, but also on the 3-position substitution of acrylic acid.” for “control.”
as §2
(§3) Cells were seeded in 96-well microtiter plates at a density of 1 × 10^4 cells well^−1 and incubated with different concentrations of compound (6.25, 12.50, 25.00, 50.00 to 100.00 µM), cisplatin and paclitaxel in RPMI-1640 or DMEM at 37°C with 5% CO2. After 24 h, cell morphology was observed using a light microscope, and then 20 µl of MTT solution (5 mg ml^−1) was added to the well and incubated for 4 h, then cell survival was determined by measuring the optical density (OD) absorbance at a wavelength of 570 nm using an ELISA microplate reader. The inhibition rate (IR) following each compound treatment was determined by the following equation: IR (%) = (1 − ODexp/ODcon) × 100%, where ODexp and ODcon are the OD of the treated and untreated cells, respectively. Cisplatin and paclitaxel were used as positive control drugs.

[1] = MTT cytotoxicity test, LO2; format: cell-based, human; conditions: human, LO2 cells (normal human hepatocytes), average of three determinations
Experimental: (§4) Vero cells are non-tumorigenic cell lines and are important raw materials as the research and production of biological products. Vero cells show low tumorigenicity and had been approved for use in the production of human virus vaccines. Thus, Vero cells were chosen as a control for cytotoxicity. All compounds were evaluated for their cell toxicity against Vero and normal human hepatocytes cells line (LO2) using MTT assays.
as §2, §3

[2] = MTT cytotoxicity test, Vero; format: cell-based, African green monkey; conditions: African green monkey, Vero cells (normal African green monkey kidney), average of three determinations
Experimental: as §4, §2, §3

A549 cells = assay: MTT anti-proliferation assay, A549; format: cell-based, human; conditions: Homo sapiens, A549, 24 h, average of three determinations
Experimental: as §1, with “control. […] Therefore, the inhibitory activity of the compounds depended not only on the 2-position substitution of acrylic acid, but also on the 3-position substitution of acrylic acid.” for “control.”
as §2, §3

Structure (SMILES) | melting point | IC50 (HeLa cells) | IC50 (HepG2 cells) | IC50 (A549 cells) | CC50 at 24 h [1] | CC50 at 24 h [2]
COc1cc(C(=Cc2cccc(C(F)(F)F)c2)C(=O)O)cc(OC)c1OC [compound h, 3-(3-(trifluoromethyl)phenyl)-2-(3,4,5-trimethoxyphenyl) acrylic acid] | 162 to 164 °C | 26 ± 4 µM | 47 ± 4 µM | 32 ± 5 µM | 75 ± 4 µM | > 100 µM
COc1cc(C(=Cc2cccc(OC(F)(F)F)c2)C(=O)O)cc(OC)c1OC [compound g, 3-(3-(trifluoromethoxy)phenyl)-2-(3,4,5-trimethoxyphenyl) acrylic acid] | 156 to 157 °C | 73 ± 5 µM | 24 ± 2 µM | 14 ± 4 µM | > 100 µM | > 100 µM
COc1cc(C(=Cc2c(Cl)cccc2Cl)C(=O)O)cc(OC)c1OC [compound b, 3-(2,6-dichlorophenyl)-2-(3,4,5-trimethoxyphenyl) acrylic acid] | 217 to 218 °C | 32 ± 3 µM | 74 ± 4 µM | 46 ± 3 µM | 92 ± 2 µM | > 100 µM
COc1cc(C(=Cc2ccccc2OC(F)(F)F)C(=O)O)cc(OC)c1OC [compound e, 3-(2-(trifluoromethoxy)phenyl)-2-(3,4,5-trimethoxyphenyl) acrylic acid] | 164 °C | 61 ± 3 µM | > 100 µM | > 100 µM | > 100 µM | 82 ± 2 µM
COc1cc(C(=Cc2cc([N+](=O)[O-])ccc2Cl)C(=O)O)cc(OC)c1OC [compound d, 3-(2-chloro-5-nitrophenyl)-2-(3,4,5-trimethoxyphenyl) acrylic acid] | 247 to 248 °C | 62 ± 3 µM | > 100 µM | > 100 µM | 93 ± 2 µM | > 100 µM
COc1cc(C(=Cc2ccc(Cl)c(Cl)c2)C(=O)O)cc(OC)c1OC [compound a, 3-(3,4-dichlorophenyl)-2-(3,4,5-trimethoxyphenyl) acrylic acid] | 233 to 235 °C | 27 ± 2 µM | 50 ± 4 µM | 34 ± 2 µM | 27 ± 1 µM | 28.2 ± 0.5 µM
COc1cc(C(=Cc2ccc(OC(F)(F)F)cc2)C(=O)O)cc(OC)c1OC [compound f, 3-(4-(trifluoromethoxy)phenyl)-2-(3,4,5-trimethoxyphenyl) acrylic acid] | 208 °C | 20 ± 3 µM | 18.7 ± 0.9 µM | 19 ± 2 µM | > 100 µM | > 100 µM
COc1cc(C(=Cc2ccc(Cl)cc2Cl)C(=O)O)cc(OC)c1OC [compound c, 3-(2,4-dichlorophenyl)-2-(3,4,5-trimethoxyphenyl) acrylic acid] | 228 °C | 46 ± 3 µM | 30 ± 3 µM | 30 ± 1 µM | > 100 µM | 71 ± 2 µM
CC(=O)O[C@H]1C(=O)[C@@]2(C)[C@H]([C@H](OC(=O)c3ccccc3)[C@]3(O)C[C@H](OC(=O)[C@H](O)[C@@H](NC(=O)c4ccccc4)c4ccccc4)C(C)=C1C3(C)C)[C@]1(OC(C)=O)CO[C@@H]1C[C@@H]2O [paclitaxel, reference compound] |  | 0.7 ± 0.1 µM | 0.39 ± 0.03 µM | 0.17 ± 0.03 µM | > 100 µM | 98 ± 1 µM

Second part, led by results:

melting point | IC50 (HeLa cells) | IC50 (HepG2 cells) | IC50 (A549 cells) | Structure (SMILES) | CC50 at 24 h [1] | CC50 at 24 h [2]
159 to 160 °C | 5.1 ± 0.8 µM | 7.7 ± 0.3 µM | 14 ± 2 µM | COc1ccc(C(=Cc2ccc(OC(F)(F)F)cc2)C(=O)O)cc1 [compound p, 2-(4-methoxyphenyl)-3-(4-(trifluoromethoxy)phenyl) acrylic acid] | 84 ± 2 µM | 93 ± 3 µM
258 °C | > 100 µM | 100 ± 0.8 µM | > 100 µM | COc1cc(C(=Cc2cc(C(F)(F)F)ccc2Cl)C(=O)O)cc(OC)c1OC [compound k, 3-(2-chloro-5-(trifluoromethyl)phenyl)-2-(3,4,5-trimethoxyphenyl) acrylic acid] | 88 ± 2 µM | 71 ± 2 µM
192 to 194 °C | 14 ± 1 µM | 19 ± 2 µM | 16 ± 3 µM | COc1ccc(C(=Cc2cccc(C(F)(F)F)c2)C(=O)O)cc1 [compound q, 2-(4-methoxyphenyl)-3-(3-(trifluoromethyl)phenyl) acrylic acid] | 98 ± 2 µM | > 100 µM
259 °C | 19 ± 2 µM | 56.66 ± 0.02 µM | 18 ± 3 µM | COc1cc(C(=Cc2ccc(C(F)(F)F)cc2)C(=O)O)cc(OC)c1OC [compound j, 3-(4-(trifluoromethyl)phenyl)-2-(3,4,5-trimethoxyphenyl) acrylic acid] | > 100 µM | > 100 µM
167 to 169 °C | 60 ± 1 µM | > 100 µM | 34 ± 2 µM | COc1cc(C(=Cc2cc(Cl)ccc2[N+](=O)[O-])C(=O)O)cc(OC)c1OC [compound m, 3-(5-chloro-2-nitrophenyl)-2-(3,4,5-trimethoxyphenyl) acrylic acid] | > 100 µM | > 100 µM
203 to 204 °C | 20 ± 2 µM | 79 ± 4 µM | 27.2 ± 0.9 µM | COc1cc(C(=Cc2c(Cl)ccc(Cl)c2Cl)C(=O)O)cc(OC)c1OC [compound n, 3-(2,3,6-trichlorophenyl)-2-(3,4,5-trimethoxyphenyl) acrylic acid] | 77 ± 1 µM | 63 ± 2 µM
198 to 200 °C | 51.25 ± 0.01 µM | 100 ± 1 µM | 61 ± 3 µM | COc1ccc(C=C(C(=O)O)c2cc(C)cc(C)c2)cc1 [compound v, 2-(3,5-dimethylphenyl)-3-(4-methoxyphenyl) acrylic acid] | 96 ± 6 µM | > 100 µM
202 °C | 24 ± 2 µM | 93 ± 3 µM | > 100 µM | COc1ccc(C(=Cc2ccc(OC)c(OC)c2Cl)C(=O)O)cc1 [compound t, 3-(2-chloro-3,4-dimethoxyphenyl)-2-(4-methoxyphenyl) acrylic acid] | 87 ± 2 µM | 85 ± 1 µM
171 to 173 °C | 89 ± 4 µM | > 100 µM | > 100 µM | COc1cc(C(=Cc2ccc(OC)c(OC)c2Cl)C(=O)O)cc(OC)c1OC [compound l, 3-(2-chloro-3,4-dimethoxyphenyl)-2-(3,4,5-trimethoxyphenyl) acrylic acid] | 64 ± 2 µM | > 100 µM
160 to 162 °C | 41 ± 4 µM | 42 ± 2 µM | 32 ± 2 µM | COc1cc(C(=Cc2ccccc2C(F)(F)F)C(=O)O)cc(OC)c1OC [compound i, 3-(2-(trifluoromethyl)phenyl)-2-(3,4,5-trimethoxyphenyl) acrylic acid] | > 100 µM | > 100 µM
319 to 320 °C | 10 ± 2 µM | 48 ± 5 µM | 21.3 ± 0.7 µM | COc1ccc(C(=Cc2c(Cl)cccc2Cl)C(=O)O)cc1 [compound o, 3-(2,6-dichlorophenyl)-2-(4-methoxyphenyl) acrylic acid] | > 100 µM | > 100 µM
